≈ marks a conversion by molar mass, not a printed value. Where “and” joins values, the source holds several entries; their conditions need not be identical. Equal entries are not always repeated.
Tests used:
Assay in all cases: ≥ marks a high value that may be exact or a test limit, other limits are often not marked, values filed in µg/mL are converted to µM
[1] = tested on: Bacillus subtilis ATCC 62037
[2] = tested on: Candida albicans ATCC 10231
[3] = tested on: Cryptococcus neoformans ATCC 34881
[4] = tested on: Escherichia coli ATCC 27325
[5] = tested on: Pseudomonas putida ATCC 17426
[6] = tested on: Saccharomyces cerevisiae ATCC 44774
[7] = tested on: Salmonella enterica subsp. enterica serovar Enteritidis ATCC 13076
[8] = tested on: Staphylococcus aureus ATCC 15752
[9] = tested on: Streptococcus mutans ATCC 25175
Aeromonas hydrophila = tested on: Aeromonas hydrophila
Vibrio harveyi = tested on: Vibrio harveyi
[10] = tested on: Candida albicans NCPF 1467
[11] = tested on: Staphylococcus aureus NCTC 10788
[12] = tested on: Bacillus subtilis ATCC 6633
[13] = tested on: Escherichia coli ATCC 25922
[14] = tested on: Klebsiella pneumoniae ATCC 10031
[15] = tested on: Micrococcus luteus ATCC 10240
[16] = tested on: Pseudomonas aeruginosa ATCC 27853
[17] = tested on: Salmonella enterica subsp. enterica serovar Typhimurium ATCC 14028
[18] = tested on: Shigella dysenteriae ATCC 9752
[19] = tested on: Staphylococcus aureus ATCC 6538P
[20] = tested on: Staphylococcus aureus TK784
[21] = tested on: Staphylococcus epidermidis ATCC 12228
Escherichia coli = tested on: Escherichia coli
Listeria innocua = tested on: Listeria innocua
Micrococcus luteus A270 = tested on: Micrococcus luteus A270
[22] = tested on: Salmonella enterica subsp. enterica serovar Enteritidis
Escherichia coli BW25113 = tested on: Escherichia coli BW25113
Micrococcus luteus = tested on: Micrococcus luteus
Staphylococcus aureus = tested on: Staphylococcus aureus

## CC[C@H](C)[C@H](NC(=O)CNC(=O)[C@H](CCCCN)NC(=O)[C@H](CCCCN)NC(=O)[C@H](CCC(N)=O)NC(=O)[C@H](CC(C)C)NC(=O)[C@H](CCCN=C(N)N)NC(=O)[C@H](CC(C)C)NC(=O)[C@H](CC(C)C)NC(=O)[C@H](CCCN=C(N)N)NC(=O)[C@H](CCCN=C(N)N)NC(=O)[C@H](CC(C)C)NC(=O)[C@H](CC(C)C)NC(=O)[C@H](CCCN=C(N)N)NC(=O)[C@H](CCSC)NC(=O)[C@H](C)NC(=O)[C@H](CCCCN)NC(=O)[C@@H]1CCCN1C(=O)[C@H](C)N)C(=O)O [APKAMRLLRRLLRLQKKGI]
[1]
  MIC: 0.442 µM (≈ 1 µg/mL)
[2]
  MIC: 0.221 µM (≈ 0.5 µg/mL)
[3]
  MIC: 0.221 µM (≈ 0.5 µg/mL)
[4]
  MIC: 0.442 µM (≈ 1 µg/mL)
[5]
  MIC: 0.442 µM (≈ 1 µg/mL)
[6]
  MIC: 0.221 µM (≈ 0.5 µg/mL)
[7]
  MIC: 0.442 µM (≈ 1 µg/mL)
[8]
  MIC: 0.884 µM (≈ 2 µg/mL)
[9]
  MIC: 0.442 µM (≈ 1 µg/mL)

## CC[C@H](C)[C@H](NC(=O)[C@H](C)NC(=O)[C@H](CCCN=C(N)N)NC(=O)[C@H](Cc1cnc[nH]1)NC(=O)[C@@H](NC(=O)[C@H](C)NC(=O)[C@H](CCCN=C(N)N)NC(=O)[C@@H](NC(=O)CNC(=O)[C@H](Cc1cnc[nH]1)NC(=O)[C@H](CO)NC(=O)[C@@H](NC(=O)[C@H](Cc1c[nH]c2ccccc12)NC(=O)CNC(=O)[C@@H](NC(=O)[C@@H](NC(=O)[C@H](C)NC(=O)[C@H](Cc1cnc[nH]1)NC(=O)[C@@H](NC(=O)[C@@H](N)Cc1ccccc1)[C@@H](C)CC)[C@@H](C)CC)[C@@H](C)CC)[C@@H](C)CC)C(C)C)[C@@H](C)CC)C(=O)N[C@@H](Cc1cnc[nH]1)C(N)=O [FIHAIIGWISHGVRAIHRAIH]
Aeromonas hydrophila
  MIC: 16 µM (≈ 38.5 µg/mL)
Vibrio harveyi
  MIC: ≥ 32 µM

## CC[C@H](C)[C@H](N)C(=O)N[C@H](C(=O)NCC(=O)N[C@@H](C)C(=O)N[C@H](C(=O)N[C@@H](C)C(=O)N[C@@H](C)C(=O)N[C@@H](C)C(=O)N[C@@H](CC(C)C)C(=O)N1CCC[C@H]1C(=O)N[C@@H](Cc1cnc[nH]1)C(=O)N[C@H](C(=O)N[C@H](C(=O)N[C@@H](CC(N)=O)C(=O)N[C@@H](C)C(=O)N[C@H](C(=O)N[C@@H](CCCCN)C(=O)N[C@@H](CC(N)=O)C(=O)N[C@H](C(=O)N[C@@H](Cc1ccccc1)C(=O)O)[C@@H](C)O)[C@@H](C)CC)[C@@H](C)CC)C(C)C)[C@@H](C)CC)[C@@H](C)CC [IIGAIAAALPHVINAIKNTF]
[10]
  MIC: ≥ 120 µM
[11]
  MIC: 16 µM (≈ 32.8 µg/mL)

## CC(C)C[C@H](NC(=O)[C@H](Cc1c[nH]c2ccccc12)NC(=O)[C@H](CCCCN)NC(=O)[C@H](CC(C)C)NC(=O)[C@H](CC(C)C)NC(=O)[C@H](CCCCN)NC(=O)[C@H](CCCCN)NC(=O)[C@H](CC(C)C)NC(=O)[C@H](CC(C)C)NC(=O)[C@H](CCCCN)NC(=O)[C@@H](N)CCCCN)C(N)=O [KKLLKKLLKWL]
[12]
  MIC: 0.709 µM (≈ 0.999 µg/mL)
[13]
  MIC: 1.42 µM (≈ 2 µg/mL)
[14]
  MIC: 1.42 µM (≈ 2 µg/mL)
[15]
  MIC: 1.42 µM (≈ 2 µg/mL)
[16]
  MIC: 2.84 µM (≈ 4 µg/mL)
[17]
  MIC: 0.709 µM (≈ 0.999 µg/mL)
[18]
  MIC: 0.709 µM (≈ 0.999 µg/mL)
[19]
  MIC: 0.709 µM (≈ 0.999 µg/mL)
[20]
  MIC: 2.84 µM (≈ 4 µg/mL)
[21]
  MIC: 0.709 µM (≈ 0.999 µg/mL)

## CC(C)C[C@H](NC(=O)[C@H](Cc1c[nH]c2ccccc12)NC(=O)[C@H](CCCCN)NC(=O)[C@H](CCCCN)NC(=O)[C@H](CC(C)C)NC(=O)[C@H](Cc1c[nH]c2ccccc12)NC(=O)[C@H](CCCCN)NC(=O)[C@H](CC(C)C)NC(=O)[C@@H](N)CC(C)C)C(=O)N[C@@H](CCCCN)C(=O)N[C@@H](CCCCN)C(N)=O [LLKWLKKWLKK]
[12]
  MIC: 1.68 µM (≈ 2.5 µg/mL)
[13]
  MIC: 27 µM (≈ 40 µg/mL)
[14]
  MIC: 27 µM (≈ 40 µg/mL)
[15]
  MIC: 3.37 µM (≈ 5 µg/mL)
[16]
  MIC: 13.5 µM (≈ 20 µg/mL)
[17]
  MIC: 53.9 µM (≈ 79.9 µg/mL)
[18]
  MIC: ≥ 53.9 µM
[19]
  MIC: 1.68 µM (≈ 2.5 µg/mL)
[20]
  MIC: 27 µM (≈ 40 µg/mL)
[21]
  MIC: 1.68 µM (≈ 2.5 µg/mL)

## CC(C)C[C@H](NC(=O)[C@H](CC(C)C)NC(=O)[C@H](Cc1c[nH]c2ccccc12)NC(=O)[C@H](CCCCN)NC(=O)[C@H](CC(C)C)NC(=O)[C@H](CC(C)C)NC(=O)[C@H](Cc1c[nH]c2ccccc12)NC(=O)[C@H](CCCCN)NC(=O)[C@H](CC(C)C)NC(=O)[C@@H](N)CC(C)C)C(=O)N[C@@H](CCCCN)C(N)=O [LLKWLLKWLLK]
[12]
  MIC: 0.894 µM (≈ 1.3 µg/mL)
[13]
  MIC: > 55 µM
[14]
  MIC: ≥ 55 µM
[15]
  MIC: 1.72 µM (≈ 2.5 µg/mL)
[16]
  MIC: > 55 µM
[17]
  MIC: > 55 µM
[18]
  MIC: ≥ 55 µM
[19]
  MIC: 1.72 µM (≈ 2.5 µg/mL)
[20]
  MIC: 3.44 µM (≈ 5 µg/mL)
[21]
  MIC: 0.894 µM (≈ 1.3 µg/mL)

## CC(C)C[C@H](NC(=O)[C@H](C)NC(=O)[C@H](CC(N)=O)NC(=O)[C@H](C)NC(=O)[C@@H](NC(=O)CNC(=O)[C@H](C)NC(=O)[C@@H](NC(=O)[C@@H](NC(=O)[C@H](CCCCN)NC(=O)[C@H](CCC(N)=O)NC(=O)[C@H](Cc1ccccc1)NC(=O)[C@H](CC(=O)O)NC(=O)[C@H](C)NC(=O)[C@@H](N)CCC(N)=O)C(C)C)C(C)C)C(C)C)C(=O)N[C@@H](C)C(=O)N[C@@H](Cc1cnc[nH]1)C(=O)N[C@@H](CCCN=C(N)N)C(=O)N[C@@H](Cc1ccc(O)cc1)C(=O)N[C@@H](Cc1cnc[nH]1)C(=O)O [QADFQKVVAGVANALAHRYH]
Escherichia coli
  MIC: 71 µM (≈ 156 µg/mL)
Listeria innocua
  MIC: ≥ 71 µM
Micrococcus luteus A270
  MIC: ≥ 71 µM
[22]
  MIC: ≥ 35 µM

## CC[C@H](C)[C@H](NC(=O)[C@@H]1CCCN1C(=O)[C@H](CCCN=C(N)N)NC(=O)[C@H](CCCN=C(N)N)NC(=O)[C@H](Cc1ccccc1)NC(=O)[C@@H](N)CCCN=C(N)N)C(=O)N[C@@H](CCCN=C(N)N)C(=O)N[C@@H](CCCN=C(N)N)C(=O)N1CCC[C@H]1C(=O)N1CCC[C@H]1C(=O)N[C@H](C(=O)N[C@@H](CCCN=C(N)N)C(=O)N1CCC[C@H]1C(=O)N1CCC[C@H]1C(=O)N[C@@H](Cc1c[nH]c2ccccc12)C(=O)N[C@@H](Cc1ccc(O)cc1)C(=O)N1CCC[C@H]1C(=O)O)[C@@H](C)CC [RFRRPIRRPPIRPPWYP]
Escherichia coli BW25113
  MIC: 12 µM (≈ 27.1 µg/mL)

## CC[C@H](C)[C@H](NC(=O)[C@@H]1CCCN1C(=O)[C@H](CCCN=C(N)N)NC(=O)[C@H](CCCN=C(N)N)NC(=O)[C@H](Cc1ccccc1)NC(=O)[C@@H](N)CCCN=C(N)N)C(=O)N[C@@H](CCCN=C(N)N)C(=O)N[C@@H](CCCN=C(N)N)C(=O)N[C@@H](CCCN=C(N)N)C(=O)N1CCC[C@H]1C(=O)N[C@H](C(=O)N[C@@H](CCCN=C(N)N)C(=O)N1CCC[C@H]1C(=O)N1CCC[C@H]1C(=O)N[C@@H](Cc1c[nH]c2ccccc12)C(=O)N[C@@H](Cc1ccc(O)cc1)C(=O)N[C@@H](CCCN=C(N)N)C(=O)O)[C@@H](C)CC [RFRRPIRRRPIRPPWYR]
Escherichia coli BW25113
  MIC: 8 µM (≈ 19 µg/mL)

## CC[C@H](C)[C@H](NC(=O)[C@@H]1CCCN1C(=O)[C@H](Cc1c[nH]c2ccccc12)NC(=O)[C@H](CCCN=C(N)N)NC(=O)[C@H](Cc1c[nH]c2ccccc12)NC(=O)[C@@H](N)CCCN=C(N)N)C(=O)N[C@@H](CCCN=C(N)N)C(=O)N[C@@H](CCCN=C(N)N)C(=O)N1CCC[C@H]1C(=O)N1CCC[C@H]1C(=O)N[C@H](C(=O)N[C@@H](CCCN=C(N)N)C(=O)N1CCC[C@H]1C(=O)N1CCC[C@H]1C(=O)N[C@@H](Cc1c[nH]c2ccccc12)C(=O)N[C@@H](Cc1ccc(O)cc1)C(=O)N1CCC[C@H]1C(=O)O)[C@@H](C)CC [RWRWPIRRPPIRPPWYP]
Escherichia coli BW25113
  MIC: 8 µM (≈ 18.6 µg/mL)

## CC(C)C[C@H](NC(=O)[C@@H](NC(=O)[C@@H](NC(=O)[C@@H](N)CO)[C@@H](C)O)C(C)C)C(=O)N[C@H](C(=O)N[C@@H](CO)C(=O)N[C@@H](CCCCN)C(=O)N[C@@H](Cc1ccc(O)cc1)C(=O)N[C@@H](CCCN=C(N)N)C(=O)O)[C@@H](C)O [STVLTSKYR]
Escherichia coli
  MIC: 8 µM (≈ 8.43 µg/mL)
Listeria innocua
  MIC: 2 µM (≈ 2.11 µg/mL)
Micrococcus luteus A270
  MIC: 15 µM (≈ 15.8 µg/mL)
Micrococcus luteus
  MIC: 15 µM (≈ 15.8 µg/mL)
[22]
  MIC: 8 µM and 7.5 µM
Staphylococcus aureus
  MIC: 2 µM (≈ 2.11 µg/mL)

Source: DBAASP
